Eleven molecules from ChEMBL document CHEMBL1201862, “PubChem BioAssay data set” (2004) can be followed below.

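Five compound concentrations were applied to cells in 96-well plates for 48 hours; endpoints were derived by simple linear interpolation of the resulting dose-response curve. GI50 is the concentration that inhibits growth by half.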 Calls of active or inactive are those of the source. Cut-off read from the data, not from the text of the source: active = GI50 up to about 1.1 µM and inactive = higher. Some results are limits rather than exact numbers.

Among the test systems are A498; ACHN; CCRF-CEM; COLO 205; EKVX; HOP-62; IGROV-1; KM12; LOX IMVI; MCF7; MDA-MB-231; MOLT-4; Malme-3M; OVCAR-3; OVCAR-4; PC-3; SK-MEL-5; SW-620; TK-10; HCC 2998.
Common to all, as to assay: NCI anticancer screen, dose series, 48 h

In the case of `CN(C)CCCNC(=O)c1cc2/c(=C\c3ccc(N(C)C)cc3)c3ccccc3n2[n+]1C`, the GI50 was 6.04 µM (inactive) in the assay on A498; > 100 µM (inactive) with ACHN; 35.1 µM (inactive) with CCRF-CEM; 8.73 µM (inactive) in the assay with COLO 205; 17.9 µM (inactive) in the assay on EKVX; 48.3 µM (inactive) with HOP-62. For the same molecule, the GI50 in the assay with IGROV-1 was 15.7 µM (inactive); in the assay with KM12, 24.7 µM (inactive); with LOX IMVI it was 42 µM (inactive); with MCF7, 21.8 µM (inactive); in the assay on MDA-MB-231, 21.5 µM (inactive); in the assay with MOLT-4 it was 34.8 µM (inactive). The GI50 with Malme-3M was 23.1 µM (inactive); in the assay with OVCAR-3, 15.4 µM (inactive); with OVCAR-4 it was 8.77 µM (inactive); in the assay on PC-3, 39.5 µM (inactive); with SK-MEL-5, 15.6 µM (inactive); in the assay with SW-620 it was 31.1 µM (inactive). In the assay with TK-10, the GI50 was 90.6 µM (inactive).

Consider `CC(C)OC(=O)c1ccc(NCc2cc(O)ccc2O)cc1Cl`, for which the GI50 with A498 is 11 µM (inactive); in the assay on ACHN, 1.78 µM (inactive); in the assay on CCRF-CEM, 0.258 µM (active); with COLO 205, 2.3 µM (inactive); with EKVX, 4.92 µM (inactive); with HCC 2998 it was 3.59 µM (inactive). Also, the GI50 in the assay on HOP-62 was 18.9 µM (inactive); in the assay on IGROV-1, 2.31 µM (inactive); in the assay on KM12, 3.64 µM (inactive); with LOX IMVI it was 3.27 µM (inactive); with MCF7 it was 3.47 µM (inactive); in the assay with MDA-MB-231, 4.18 µM (inactive). The GI50 in the assay with MOLT-4 is 0.695 µM (active); in the assay with OVCAR-3 it was 2.56 µM (inactive); in the assay on OVCAR-4, 4.89 µM (inactive); in the assay on PC-3, 2.57 µM (inactive); in the assay on SK-MEL-5 it was 2.73 µM (inactive); in the assay on SW-620, 2.72 µM (inactive). Further, the GI50 in the assay on TK-10 is 6.98 µM (inactive).

With `Nc1ncnc2c1ncn2CC(OCP(=O)(O)O)Oc1ccccc1` (configuration not stated), the GI50 in the assay on A498, with ACHN, with CCRF-CEM, with COLO 205, in the assay with EKVX and in the assay with HCC 2998 was > 100 µM (inactive) throughout. Moreover, the GI50 with HOP-62, with KM12, in the assay with LOX IMVI, with MCF7, in the assay on MDA-MB-231 and in the assay on OVCAR-3 was > 100 µM (inactive) in each case. The GI50 in the assay with OVCAR-4, in the assay on PC-3, in the assay on SK-MEL-5, in the assay with SW-620 and in the assay with TK-10 was > 100 µM (inactive) each time.

Take `O=C1C=CC(O)C2C1CC13SSC4(CC5C(=O)C=CC(O)C5N4C1=O)C(=O)N23` (configuration not stated): the GI50 was 3.2 µM (inactive) in the assay with A498; 0.0745 µM (active) in the assay with ACHN; < 0.01 µM (active) with CCRF-CEM; 0.155 µM (active) with COLO 205; 0.726 µM (active) in the assay with EKVX; 0.324 µM (active) in the assay on HOP-62. The GI50 in the assay with IGROV-1 is 1.37 µM (inactive); in the assay with KM12, 0.0885 µM (active); with LOX IMVI, 0.0579 µM (active); with MCF7, 1.21 µM (inactive); in the assay on MDA-MB-231 it was 0.281 µM (active); in the assay with MOLT-4, 0.0109 µM (active). Moreover, the GI50 is 0.33 µM (active) with Malme-3M; 0.0845 µM (active) in the assay with OVCAR-3; 0.476 µM (active) in the assay on OVCAR-4; 0.138 µM (active) in the assay with PC-3; 0.412 µM (active) in the assay on SK-MEL-5; 0.0324 µM (active) with SW-620. Moreover, the GI50 with TK-10 is 0.485 µM (active).

In the case of `CC1=C(C(=O)OC(C)C)C(c2ccccc2C(F)(F)F)C(C(=O)OC(CO[N+](=O)[O-])CO[N+](=O)[O-])=C(C)N1` (configuration not stated), the GI50 in the assay on ACHN is 4.79 µM (inactive); with CCRF-CEM it was 2.72 µM (inactive); in the assay on COLO 205, 10.2 µM (inactive); in the assay on EKVX, 13.3 µM (inactive); in the assay with HCC 2998 it was 21.6 µM (inactive); in the assay on HOP-62 it was 11 µM (inactive). Moreover, the GI50 in the assay with IGROV-1 was 9.29 µM (inactive); in the assay on KM12, 5.14 µM (inactive); with LOX IMVI, 4.61 µM (inactive); with MCF7, 4.22 µM (inactive); in the assay on MDA-MB-231, 12.3 µM (inactive); with MOLT-4 it was 2.17 µM (inactive). Moreover, the GI50 in the assay on Malme-3M was 12.2 µM (inactive); with OVCAR-3 it was 9.31 µM (inactive); in the assay on OVCAR-4, 5.3 µM (inactive); in the assay on PC-3 it was 2.56 µM (inactive); in the assay on SK-MEL-5, 5.52 µM (inactive); in the assay on SW-620, 5.79 µM (inactive). Besides, in the assay with TK-10, the GI50 is 23.9 µM (inactive).

Take `O=[N+]([O-])/C(C(Cl)=C(Cl)Cl)=C(\Nc1cccc2cccnc12)Sc1ccccc1`: the GI50 with A498 was 20 µM (inactive); in the assay on ACHN, 22.8 µM (inactive); with CCRF-CEM, 27.7 µM (inactive); in the assay on COLO 205, 17.1 µM (inactive); in the assay with EKVX, 27.4 µM (inactive); in the assay on HCC 2998 it was 78.2 µM (inactive). For the same molecule, the GI50 in the assay with HOP-62 was 23.4 µM (inactive); in the assay on KM12 it was 12.6 µM (inactive); in the assay with MCF7, 20.8 µM (inactive); in the assay on MDA-MB-231, 18.2 µM (inactive); with MOLT-4, 12.9 µM (inactive); in the assay on Malme-3M, 23.1 µM (inactive). Also, the GI50 in the assay on OVCAR-3 was 11.4 µM (inactive); in the assay with OVCAR-4, 23.1 µM (inactive); with PC-3, 18.8 µM (inactive); in the assay with SW-620, 18 µM (inactive).

As to `Cc1cccc(/C=N/NC(=S)Nc2ccc(Cl)cc2)n1`, the GI50 was 1.12 µM (active) in the assay on ACHN; 0.695 µM (active) in the assay on CCRF-CEM; 0.658 µM (active) in the assay on COLO 205; 2.41 µM (inactive) in the assay on EKVX; 7.8 µM (inactive) in the assay with HCC 2998; 1.08 µM (active) with HOP-62. In addition, the GI50 is 0.811 µM (active) in the assay on IGROV-1; 0.977 µM (active) in the assay with KM12; 1.04 µM (active) in the assay on LOX IMVI; 0.607 µM (active) with MCF7; 0.897 µM (active) in the assay on MDA-MB-231; 1.17 µM (inactive) in the assay with MOLT-4. Further, the GI50 with Malme-3M was 0.665 µM (active); in the assay on OVCAR-3, 0.968 µM (active); with OVCAR-4, 4.78 µM (inactive); with PC-3, 1.94 µM (inactive); with SK-MEL-5 it was 0.993 µM (active); in the assay with SW-620, 0.46 µM (active). For the same molecule, in the assay on TK-10, the GI50 is 11.6 µM (inactive).

Take `CN(C)/N=N/c1nc2c(c(=O)n(C)c(=O)n2C)n1CC1CO1` (configuration not stated): the GI50 in the assay with ACHN is 10.8 µM (inactive); in the assay on CCRF-CEM, 23.8 µM (inactive); with COLO 205, 14.3 µM (inactive); in the assay with EKVX, 22.4 µM (inactive); in the assay on HCC 2998, 12.7 µM (inactive); with HOP-62, 12.1 µM (inactive). The GI50 was 11.7 µM (inactive) in the assay with IGROV-1; 13.4 µM (inactive) in the assay on KM12; 8.43 µM (inactive) in the assay with LOX IMVI; 5.38 µM (inactive) with MCF7; 16.9 µM (inactive) in the assay on MDA-MB-231; 12.3 µM (inactive) in the assay with MOLT-4. Besides, the GI50 in the assay with Malme-3M is 9.18 µM (inactive); with OVCAR-3 it was 15.8 µM (inactive); with OVCAR-4, 15.7 µM (inactive); in the assay with PC-3, 20.7 µM (inactive); with SK-MEL-5 it was 12.9 µM (inactive); in the assay on SW-620, 15 µM (inactive). The GI50 in the assay with TK-10 was 11.9 µM (inactive).

Regarding `CCCc1cn2c(/C=N/NC(=N)N)c(-c3cc([N+](=O)[O-])c(Cl)cc3Cl)nc2s1`, the GI50 in the assay with A498 was 1.55 µM (inactive); in the assay with ACHN, 1.77 µM (inactive); in the assay on CCRF-CEM, 0.216 µM (active); in the assay on COLO 205 it was 1.48 µM (inactive); in the assay on HOP-62, 1.58 µM (inactive); in the assay on IGROV-1, 1.69 µM (inactive). Besides, the GI50 was 1.5 µM (inactive) with KM12; 1.41 µM (inactive) in the assay with LOX IMVI; 1.4 µM (inactive) with MCF7; 1.63 µM (inactive) in the assay on MDA-MB-231; 0.17 µM (active) in the assay on MOLT-4; 1.5 µM (inactive) with OVCAR-3. For the same molecule, the GI50 in the assay with OVCAR-4 was 1.46 µM (inactive); in the assay on PC-3, 1.67 µM (inactive); in the assay on SK-MEL-5, 1.61 µM (inactive); with SW-620 it was 1.61 µM (inactive); in the assay with TK-10 it was 1.12 µM (inactive).

As to `CSc1ccc(/C=C2\N=C(c3ccccc3)N(c3nc4cc(Cl)c(F)cc4s3)C2=O)cc1`, the GI50 was 43.5 µM (inactive) in the assay with A498; 36.4 µM (inactive) with ACHN; 25 µM (inactive) in the assay on CCRF-CEM; 54.5 µM (inactive) in the assay with COLO 205; 28.3 µM (inactive) in the assay on EKVX; 99.5 µM (inactive) in the assay with HCC 2998. Moreover, the GI50 was 25.2 µM (inactive) in the assay with HOP-62; 36.5 µM (inactive) in the assay on IGROV-1; 31.4 µM (inactive) in the assay with KM12; 20.3 µM (inactive) in the assay with LOX IMVI; 39.9 µM (inactive) with MCF7; 30.8 µM (inactive) in the assay on MDA-MB-231. Besides, the GI50 with MOLT-4 was 29.6 µM (inactive); in the assay with OVCAR-3 it was 19.8 µM (inactive); in the assay with OVCAR-4 it was 24.7 µM (inactive); in the assay with PC-3, 35.2 µM (inactive); in the assay with SK-MEL-5, 28.4 µM (inactive); in the assay with SW-620, 71.8 µM (inactive). Besides, in the assay with TK-10, the GI50 was > 100 µM (inactive).

In the case of `NC[C@H]1Nc2ccccc2[C@@H](O)C1O` (some centres not stated), the GI50 with ACHN, with CCRF-CEM, in the assay with COLO 205, in the assay with EKVX, with HCC 2998 and with HOP-62 was > 100 µM (inactive) each time. Moreover, the GI50 with IGROV-1, in the assay on KM12, with LOX IMVI, with MCF7, in the assay with MDA-MB-231 and in the assay with MOLT-4 was > 100 µM (inactive) throughout. Moreover, the GI50 in the assay on Malme-3M, with OVCAR-3, with OVCAR-4, with PC-3, in the assay on SK-MEL-5 and in the assay with SW-620 was > 100 µM (inactive) in each case. Besides, the GI50 in the assay on TK-10 is > 100 µM (inactive).
